Source: BindingDB's records for doi:10.1016/j.bmcl.2013.08.079 (Saint John'S University, 2013)

Molecular target: Low molecular weight phosphotyrosine protein phosphatase (Homo sapiens) (UniProt P24666)
Experiment: Noncompetitive inhibition of human GST-tagged LMW-PTP-B expressed in Escherichia coli JM 109 cells using p-nitrophenyl phosphate as substrate after 15 mins by microplate reader analysis

Low molecular weight phosphotyrosine protein phosphatase (Homo sapiens), sequence (P24666 whole entry, looked up): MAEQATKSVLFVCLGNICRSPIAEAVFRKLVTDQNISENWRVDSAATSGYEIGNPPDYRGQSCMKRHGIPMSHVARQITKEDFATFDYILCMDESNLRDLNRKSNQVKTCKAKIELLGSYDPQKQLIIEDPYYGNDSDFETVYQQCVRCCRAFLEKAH

Ki [µM] | Compound
26 | O=C(O)c1nc2nc(Cl)c(Cl)nc2[nH]1
73.2 | CC(=O)Nc1c(C)cc(OCC(=O)O)cc1C
